# Assay results from patent publication US9393221B2, “Methods and compounds for reducing intracellular lipid storage” (THE GENERAL HOSPITAL CORPORATION, priority 2011, dated 2016).
# Counter-ions that a name gives are not always drawn. Like-named read-outs stand apart in the source and are kept apart here.
# System: ATGL-KO iPSCs
# Experiment: High throughput iPSC chemical screening, Oil Red O (ORO) lipid accumulation; for Z-score: test concentration or dose not given here
# Type: cell-based, mouse
# Details: for Rank in normalized ORO score from screen: glycolytic switch compounds
# [1] = normalized ORO level vs DMSO-treated cells, compound present during 7 days differentiation, 96-well, negative = decrease in lipid accumulation
Compound,Z-score [1],Z-score,Rank in normalized ORO score from screen
Nc1ccc(S(=O)(=O)c2ccc(N)cc2)cc1 [Dapsone],−0.4061,,
CN1CCC(=C2c3ccccc3Sc3ccccc32)CC1 [Pimethixene maleate],−0.4872,,
"CNC(=O)Oc1ccc2c(c1)[C@]1(C)CCN(C)[C@@H]1N2C.CNC(=O)Oc1ccc2c(c1)[C@]1(C)CCN(C)[C@@H]1N2C.O=S(=O)(O)O [Eserine sulfate, physostigmine sulfate]",,0.899,
CCn1nc(C(=O)O)c(=O)c2cc3c(cc21)OCO3 [Cinoxacin],0.8009,,
CN1Cc2c(ccc3c2OCO3)C2C(O)Cc3cc4c(cc3C21)OCO4 (stereo not drawn) [Chelidonine (+)],16.9912,,
O=S(=O)(O)c1cc(O)ccc1O [Ethamsylate],0.04738,,
CCCN(CCC)C(=O)C(CCC(=O)O)NC(=O)c1ccccc1 (stereo not shown) [Proglumide],0.1235,,
O=C1c2c(O)ccc(O)c2C(=O)c2c(NCCNCCO)ccc(NCCNCCO)c21 [Mitoxantrone dihydrochloride],45.2169,,
CO[C@]12C[C@@H](COC(=O)c3cncc(Br)c3)CN(C)[C@@H]1Cc1cn(C)c3cccc2c13 [Nicergoline],0.2433,,
C[C@]12CC[C@@H]3c4ccc(O)cc4CC[C@H]3[C@@H]1CC[C@@H]2O [Estradiol-17 beta],−0.9541,,
CCCCCN(CCCCC)C(=O)C(CCC(=O)O)NC(=O)c1ccc(Cl)c(Cl)c1 (stereo not shown) [Lorglumide sodium salt],−1.7664,,
Clc1ccccc1C(c1ccccc1)(c1ccccc1)n1ccnc1 [Clotrimazole],−1.6708,,37
CN(C)C(=O)Oc1cccc([N+](C)(C)C)c1 [Neostigmine bromide],1.386,,
OCCN1CCN(CC/C=C2/c3ccccc3Sc3ccc(Cl)cc32)CC1 [Zuclopenthixol hydrochloride],−1.8038,,
COc1cc(C)nc(-n2nc(C)cc2OC)n1 [Epirizole],−0.7031,,
CC(=O)Nc1c(I)c(C(=O)N[C@H]2C(O)O[C@H](CO)[C@@H](O)[C@@H]2O)c(I)c(N(C)C(C)=O)c1I (stereo partly shown) [Metrizamide],1.8943,,
CN1[C@@H]2CC[C@H]1C[C@@H](O)C2 [Tropine],−0.2952,,
CC(C)N1CCN(c2ccc(OCC3COC(Cn4cncn4)(c4ccc(Cl)cc4Cl)O3)cc2)CC1 (stereo not shown) [Terconazole],−0.3786,,
CN(C)CCC(c1ccccc1)c1ccccn1 (stereo not shown) [Pheniramine maleate],0.3153,,
Oc1c(I)cc(Cl)c2cccnc12 [Clioquinol],−1.5195,,

Compound,Z-score [1],Z-score,Rank in normalized ORO score from screen
Cn1c(=O)c2c(ncn2CC(O)CO)n(C)c1=O (stereo not shown) [Diprophylline],−0.3767,,
O=C(Cn1ccnc1[N+](=O)[O-])NCCO [Etanidazole],0.6681,,
CC(=O)Nc1nnc(S(N)(=O)=O)s1 [Acetazolamide],0.8773,,
CCCC(=O)Nc1ccc(OCC(O)CNC(C)C)c(C(C)=O)c1 (stereo not shown) [Acebutolol hydrochloride],0.4578,,
O=C(O)Cc1ccccc1Nc1c(Cl)cccc1Cl [Diclofenac sodium],−1.137,,
CNC1(C)C2CCC(C2)C1(C)C (stereo not shown) [Mecamylamine hydrochloride],2.563,,
CNC(C)CCC=C(C)C.CNC(C)CCC=C(C)C.O=C(O)[C@@H](O)[C@H](O)[C@H](O)[C@@H](O)C(=O)O [Isometheptene mucate],0.6197,,
CCCc1cc(=O)[nH]c(=S)[nH]1 [Propylthiouracil],−0.0857,,
COc1ccc2c3c([nH]c2c1)C(C)=NCC3.Cl.O.O [Harmaline hydrochloride dihydrate],−0.5714,,
CCN(CC)CCOC(=O)C1(c2ccc([N+](=O)[O-])cc2)CCCC1.Cl [Nitrocaramiphen hydrochloride],−1.1255,,
CC[N+](C)(CC)CCC[n+]1c(-c2ccccc2)c2cc(N)ccc2c2ccc(N)cc21.[I-].[I-] [Propidium iodide],4.014,,
COC1=C[C@@H]2C3=C([C@@H]2C1=O)[C@@H](NC(C)=O)CCc1cc(OC)c(OC)c(OC)c13 [Lumicolchicine gamma],0.6596,,
CN1CCCC(CC2c3ccccc3Sc3ccccc32)C1 (stereo not shown) [Metixene hydrochloride],−0.8136,,
CC(C(=O)O)c1ccc(C(=O)c2ccccc2)s1 (stereo not shown) [Tiaprofenic acid],−0.6271,,
CN1CCC(OC(c2ccccc2)c2ccccc2)CC1 [Diphenylpyraline hydrochloride],0.246,,
CN1[C@@H](CC(=O)c2ccccc2)CCC[C@H]1C[C@H](O)c1ccccc1.Cl [Lobeline alpha (−) hydrochoride],−0.5438,,
CC1(C)S[C@@H]2[C@H](NC(=O)[C@H](N)c3ccc(O)cc3)C(=O)N2[C@H]1C(=O)O [Amoxicillin],−0.1957,,
CNCCCN1c2ccccc2CCc2ccccc21 [Desipramine hydrochloride],0.2168,,
CCCCOC(=O)c1ccc(O)cc1 [Butylparaben],−1.7629,,23
CCOC(=O)c1ccc(OC(=O)CCCCCN=C(N)N)cc1.CS(=O)(=O)O [Gabexate mesilate],−1.4041,,

Compound,Z-score [1],Z-score,Rank in normalized ORO score from screen
O=C(C1CCCCC1)N1CC(=O)N2CCc3ccccc3C2C1 (stereo not shown) [Praziquantel],−0.5159,,
Trimipramine maleate salt,−0.138,,
CC(C)(C(=O)c1cccnc1)c1cccnc1 [Metyrapone],−1.7744,,
O=C(O)/C=C/c1ccc(O)c(O)c1 [Caffeic acid],−1.7446,,
O=C(O)Cc1ccc(-c2ccccc2)cc1 [Felbinac],−0.9529,,
Clc1ccc2c(c1)C(N1CCNCC1)=Nc1ccccc1O2 [Amoxapine],−0.8161,,
Thioproperazine dimesylate,−0.4051,,
COc1ccc(CCN(C)CCCC(C#N)(c2ccc(OC)c(OC)c2)C(C)C)cc1OC.Cl (stereo not shown) [Verapamyl hydrochloride],0.4436,,
Oc1ccc(C=Cc2cc(O)cc(O)c2)cc1 [Resveratrol],11.669,,
CN(C)CCN(Cc1ccc(Cl)cc1)c1ccccn1 [Chloropyramine hydrochloride],0.124,,
CC(Cc1cccc(C(F)(F)F)c1)NCCOC(=O)c1ccccc1 (stereo not shown) [Benfluorex hydrochloride],−1.1069,,
CCc1c(C)[nH]c2c1C(=O)C(CN1CCOCC1)CC2 (stereo not shown) [Molindone hydrochloride],2.263,,
CCCCOc1ccc(CC(=O)NO)cc1 [Bufexamac],0.678,,
CCOC(=O)C1=C(C)NC(C)=C(C(=O)OC)C1c1cccc([N+](=O)[O-])c1 (stereo not shown) [Nitrendipine],−1.7782,,
COc1ccc2c(c1)c(CC(=O)O)c(C)n2C(=O)c1ccc(Cl)cc1 [Indomethacin],−0.7862,,
C[C@@H]1[C@H](O)[C@@H](C)/C=C/C=C/CC/C=C/C=C/C=C/C=C/C(O[C@H]2O[C@H](C)[C@@H](O)[C@H](N)[C@@H]2O)CC2O[C@](O)(CC(O)C(O)CCC(O)CC(O)CC(O)CC(=O)O[C@H]1C)CC(O)C2C(=O)O (stereo partly shown) [Nystatine],−0.6743,,
"O=C1NCN(c2ccccc2)C12CCN(CCCC(c1ccc(F)cc1)c1ccc(F)cc1)CC2 [Fluspirilen, reference compound]",−1.6301,,40
Nc1c(Br)cc(Br)cc1CN[C@H]1CC[C@H](O)CC1 [Ambroxol hydrochloride],−0.9433,,
